The numbers were not newly measured in patent US20040110696A1, “GENE THERAPY SYSTEM AND METHOD USING ALPHA-MSH AND ITS DERIVATIVES” (priority 2003, published 2004), which cites them from elsewhere.

Where no end group is shown, it is not given here.

One data set has as its system fever. The conditions noted are these: for antipyretic potency: relative to the α-MSH(11-13) sequence; for antipyretic activity: rabbit, in vivo.
In a further data set the test system is inflammation. The conditions noted are these: for anti-inflammatory activity: in vitro and in vivo.

On to “9-13 sequence: α-MSH fragment, residues 9-13 (WGKPV; ends and bridges not checked; UniProt P01189 146-150, looked up, fragment)”, for which the antipyretic potency result in the data set with fever was “almost devoid of activity”.
Turning to Ac-[D-K11]-α-MSH 11-13-NH2, the “general potency of α-MSH (11-13) stereochemical analogs” value in the data set on inflammation (relative to L-form tripeptide, kind of activity not given, cited Hiltz 1991 anti-inflammatory activity) is given as “same general potency as the L-form”.
For the substance lysine-proline-valine [KPV], the anti-inflammatory activity result with inflammation is given as “parallel those of the parent molecule”. For the same substance, the antipyretic activity entry with fever was “parallel those of the parent molecule”.
In the case of MEHFRWG [α-MSH sequence (4-10)], in the data set with inflammation, the anti-inflammatory activity entry is “little”. Also, the antipyretic activity entry in the data set with fever is given as “little”.
On to “8-13 sequence: α-MSH fragment, residues 8-13 (RWGKPV; ends and bridges not checked; UniProt P01189 145-150, looked up, fragment)”, for which the antipyretic potency entry with fever is recorded as “greater than that of the 11-13 sequence”.
As for “10-13 sequence: α-MSH(11-13) with glycine added to form the 10-13 sequence (GKPV; ends and bridges not checked; UniProt P01189 147-150, looked up, fragment)”, in the data set with fever, the antipyretic potency result was “slightly decreased potency”.
Take [Nle^4,D-Phe^7]-α-MSH: in the data set on fever (relative to the parent peptide α-MSH), the “potency in reducing fever” value is recorded as “approximately ten times more potent”.
